# Experimental data as given in US12390441B2, “Immunomodulating o-het/aryl azalides” (Zoetis Services LLC, priority 2020, dated 2025).
# Key:
# [1] = test system: upstream regulators; experiment: Lung tissue RNA sequence analysis, ingenuity pathway analysis; format: in vivo, mice; conditions: M9 32 mg/kg (T03)
# Experimental: In one murine P. multocida intranasal challenge study, mice were administered tulathromycin (16 mg/kg; T02), M9 (32 mg/kg; T03), or ceftiofur (9 mg/kg; T04) by subcutaneous injection 18 hours after bacterial challenge (5×10^3 CFU/mouse) for lung tissue RNA sequence analysis. […] Data was analyzed based on the number of genes being modulated in the same direction that were associated with a given upstream regulator. An activation z-score of 2 or greater is considered significant and the direction change is indicated by +(activated) or −(inhibited).
# [2] = test system: natural BRD infection; experiment: Natural bovine respiratory disease study; format: in vivo, beef calves; conditions: 14-day observation
# Experimental: The primary clinical endpoint for efficacy was treatment failure/success over a 14-day observation period. Clinically normal beef calves (150-200 kg) at moderate risk for BRD were dosed on arrival to the feedlot. Animals (N=114/group) received saline (T01), 5 mg/kg M9 (T02) or 10 mg/kg M9 (T03); or Zactran (T04). […] Bacterial isolates were collected at necropsy and MICs were evaluated (Table 4).
# [3] = test system: Bovine primary cells (PBMCs, PMN/neutrophils) and tissue (trachea, lung) protein homogenates; experiment: Binding partner identification (NPOT, mass spectrometry); conditions: as compared to gamithromycin
# Experimental: To further characterize the direct activity of the compounds of the invention, experiments to identify the drug's direct binding host partners(s) were performed with the aim of identifying the potential biological targets. Bovine primary cells (peripheral blood mononuclear cells [PBMCs] and polymorphonuclear cells [PMN/neutrophils]) and tissue (trachea, lung) protein homogenates were mixed with M9 and the macrolide, gamithromicin as a comparator. Tissue interactions were allowed to form using a heterogeneous assembly method (nematic protein organization technique, NPOT; Inoviem Scientific); and traditional western blots to identify native-structure proteins bound to the compound. Mass spectrometry analysis identified eight proteins involved in the interaction with M9 as compared to gamithromycin. The antibacterial macrolide gamithromycin was used as a comparator to differentiate specific binding to M9. These proteins were considered to be either direct binding partners of the drug or closely involved in the drug:target interaction (Table 6).
# [4] = PK study, plasma concentration; conditions: 10 mg/kg dose
smiles,measurement,setting,value
"CCCNC[C@]1(O)[C@H](C)O[C@@H](O[C@H]2[C@H](C)[C@@H](O[C@@H]3O[C@H](C)C[C@H](NC)[C@H]3O)[C@](C)(O)C[C@@H](C)CN[C@H](C)[C@@H](O)[C@](C)(O)[C@@H](CC)OC(=O)[C@@H]2C)C[C@@]1(C)OC [Example M9, (2R,3S,4R,5R,8R,10R,11R,12S,13S,14R)-2-ethyl-3,4,10-trihydroxy-13-(((2R,4R,5S,6S)-5-hydroxy-4-methoxy-4,6-dimethyl-5-((propylamino)methyl)-tetrahydro-2H-pyran-2-yl)oxy)-11-(((2S,3R,4S,6R)-3-hydroxy-6-methyl-4-(methylamino)tetrahydro-2H-pyran-2-yl)oxy)-3,5,8,10,12,14-hexamethyl-1-oxa-6-azacyclopentadecan-15-one]","activation z-score, IFNγ",[1],−5.759
same,"activation z-score, IL-1β",[1],−5.947
same,"activation z-score, STAT1",[1],−2.787
same,"activation z-score, TNF",[1],−4.669
same,"activation z-score, lipopolysaccharide",[1],−6.725
same,"activation z-score, poly rl:rC-RNA",[1],−5.289
same,unique genes up or down regulated (with significance),[1]; total lung tissue,at least 226
same,Percent failure (treatment failure),[2]; 5 mg/kg (T02),19.3%
same,Percent failure (treatment failure),[2]; 10 mg/kg (T03),8.8%
same,proteins involved in the interaction,[3],eight
same,maximum plasma concentration,[4],5 µg/mL
